Values quoted from earlier work as cited in patent US11285134B2, “Presbyopia treatments” (Allergan, Inc., priority 2018, dated 2022).
Read-outs that look alike come from different tables or passages of the source.

Test system: patients with glaucoma
Details: 1-week treatment

Question: With `CC[C@@H]1C(=O)OC[C@@H]1Cc1cncn1C` [pilocarpine] as the compound, how does the “mean percent fall in IOP from baseline” value (1% dose strength) read?
Answer: Its value is 17.5%.

Question: What about the “mean percent fall in IOP from baseline” value (4% dose strength) of the same compound?
Answer: Its value is 26.8%.

Question: What about the “mean percent fall in IOP from baseline” value (8% dose strength) of the same compound?
Answer: The value was 29.1%.
